Data taken from patent US20240270762A1, “PENICILLIN-BINDING PROTEIN INHIBITORS” (priority 2021, published 2024).
Converted amounts (≈) assume the structure as drawn.

Tests used:
[1] = biological target: T1, PBP3 from Acinetobacter baumannii (ATCC 19606) (Acinetobacter baumannii, UniProt A0ABX6CK25); assay: Bocillin-FL fluorescence polarization competition binding, A. baumannii PBP3; settings: fluorescence polarization competition binding assay using Bocillin-FL; read-out: A. baumannii PBP3 Potency
T1 sequence (A0ABX6CK25 64-610): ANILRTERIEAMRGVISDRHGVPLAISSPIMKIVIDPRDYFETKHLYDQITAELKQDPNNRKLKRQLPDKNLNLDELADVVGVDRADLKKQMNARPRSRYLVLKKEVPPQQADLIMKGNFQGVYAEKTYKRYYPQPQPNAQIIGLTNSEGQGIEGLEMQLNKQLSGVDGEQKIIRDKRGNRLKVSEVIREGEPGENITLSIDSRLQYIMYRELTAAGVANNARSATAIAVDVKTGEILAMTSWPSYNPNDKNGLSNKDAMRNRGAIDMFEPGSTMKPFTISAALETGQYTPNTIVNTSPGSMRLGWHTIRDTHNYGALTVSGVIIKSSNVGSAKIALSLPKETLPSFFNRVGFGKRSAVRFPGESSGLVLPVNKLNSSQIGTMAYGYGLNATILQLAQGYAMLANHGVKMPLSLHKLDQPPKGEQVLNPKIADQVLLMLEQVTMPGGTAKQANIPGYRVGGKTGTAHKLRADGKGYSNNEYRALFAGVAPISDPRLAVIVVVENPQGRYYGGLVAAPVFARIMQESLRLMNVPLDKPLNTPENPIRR
How it was run: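 Purified PBP was preincubated with inhibitor (E. coli PBP3 1.5 μM, 30 min; P. aeruginosa PBP3 0.75 μM, A. baumannii PBP3 0.2 μM and PBP1a 1 μM, 15 min), then Bocillin-FL (0.1 μM; 0.05 μM for PBP1a) added and FP read up to 60 min. EC50 = 50% loss of bound probe.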

P. aeruginosa CDC-0090 = assay: microbe, parasite or virus in culture; format: cell-based; settings: Pseudomonas aeruginosa, CDC0090, read-out: Minimum inhibitory concentration, P. aeruginosa CDC-0090
[2] = test system: P. aeruginosa (ΔmexAB-oprM); assay: Broth microdilution MIC in iron-depleted CAMHB (IDM); format: cell-based; settings: Pseudomonas aeruginosa; iron-depleted CAMHB (IDM); […]; read-out: Minimum inhibitory concentration, P. aeruginosa ΔmexAB-oprM
P. aeruginosa CDC-0110 = assay: microbe, parasite or virus in culture; format: cell-based; settings: Pseudomonas aeruginosa, CDC0110, read-out: Minimum inhibitory concentration, P. aeruginosa CDC-0110

Row | SMILES | IC50 [1] [µM] | MIC (P. aeruginosa CDC-0090) [µg/mL] | MIC [2] [µg/mL] | MIC (P. aeruginosa CDC-0110) [µg/mL]
1 | O=C(O)c1c(F)ccc2c1OB(O)[C@@H](NC(=O)C(NC(=O)N1CCN(C3CCN(C(=O)c4cccc(O)c4)CC3)C(=O)C1=O)c1cc(F)c(O)c(O)c1Cl)C2 (stereo partly drawn) [Example 293, (3R)-3-(2-(2-chloro-5-fluoro-3,4-dihydroxyphenyl)-2-(4-(1-(3-hydroxybenzoyl)piperidin-4-yl)-2,3-dioxopiperazine-1-carboxamido)acetamido)-7-fluoro-2-hydroxy-3,4-dihydro-2H-benzo[e][1,2]oxaborinine-8-carboxylic acid] | < 10 | 2 to 4 (≈ 2.54 to 5.09 µM) | < 1 | < 1
2 | Cc1cnccc1C(=O)NCCCN1CCN(C(=O)NC(C(=O)N[C@H]2Cc3ccc(F)c(C(=O)O)c3OB2O)c2cc(F)c(O)c(O)c2Cl)C(=O)C1=O (stereo partly drawn) [Example 297, (3R)-3-(2-(2-chloro-5-fluoro-3,4-dihydroxyphenyl)-2-(4-(3-(3-methylisonicotinamido)propyl)-2,3-dioxopiperazine-1-carboxamido)acetamido)-7-fluoro-2-hydroxy-3,4-dihydro-2H-benzo[e][1,2]oxaborinine-8-carboxylic acid] | < 10 | < 1 | < 1 | < 1
3 | O=C(NCCCN1CCN(C(=O)NC(C(=O)N[C@H]2Cc3ccc(F)c(C(=O)O)c3OB2O)c2cc(F)c(O)c(O)c2Cl)C(=O)C1=O)c1ccc(O)c(Cl)c1 (stereo partly drawn) [Example 305, (3R)-3-(2-(4-(3-(3-chloro-4-hydroxybenzamido)propyl)-2,3-dioxopiperazine-1-carboxamido)-2-(2-chloro-5-fluoro-3,4-dihydroxyphenyl)acetamido)-7-fluoro-2-hydroxy-3,4-dihydro-2H-benzo[e][1,2]oxaborinine-8-carboxylic acid] | < 10 | < 1 | < 1 | < 1
4 | O=C(NCCCN1CCN(C(=O)NC(C(=O)N[C@H]2Cc3ccc(F)c(C(=O)O)c3OB2O)c2cc(F)c(O)c(O)c2Cl)C1=O)c1ccc(O)cc1 (stereo partly drawn) [Example 280, (3R)-3-(2-(2-chloro-5-fluoro-3,4-dihydroxyphenyl)-2-(3-(3-(4-hydroxybenzamido)propyl)-2-oxoimidazolidine-1-carboxamido)acetamido)-7-fluoro-2-hydroxy-3,4-dihydro-2H-benzo[e][1,2]oxaborinine-8-carboxylic acid] | < 10 | 2 to 4 (≈ 2.73 to 5.47 µM) | < 1 | 2 to 4 (≈ 2.73 to 5.47 µM)
5 | O=C(NCCCN1CCN(C(=O)NC(C(=O)N[C@H]2Cc3ccc(F)c(C(=O)O)c3OB2O)c2cc(F)c(O)c(O)c2Cl)C(=O)C1=O)c1c(F)ccc(O)c1Cl (stereo partly drawn) [Example 414, (3R)-3-(2-(2-chloro-5-fluoro-3,4-dihydroxyphenyl)-2-(4-(3-(2-chloro-6-fluoro-3-hydroxybenzamido)propyl)-2,3-dioxopiperazine-1-carboxamido)acetamido)-7-fluoro-2-hydroxy-3,4-dihydro-2H-benzo[e][1,2]oxaborinine-8-carboxylic acid] | < 10 | < 1 | < 1 | < 1
6 | O=C(NCCCN1CCN(C(=O)NC(C(=O)N[C@H]2Cc3ccc(F)c(C(=O)O)c3OB2O)c2cc(F)c(O)c(O)c2Cl)C(=O)C1=O)c1cc(O)ccc1F (stereo partly drawn) [Example 407, (3R)-3-(2-(2-chloro-5-fluoro-3,4-dihydroxyphenyl)-2-(4-(3-(2-fluoro-5-hydroxybenzamido)propyl)-2,3-dioxopiperazine-1-carboxamido)acetamido)-7-fluoro-2-hydroxy-3,4-dihydro-2H-benzo[e][1,2]oxaborinine-8-carboxylic acid] | < 10 | < 1 | < 1 | < 1
7 | O=C(NCCCN1CCN(C(=O)NC(C(=O)N[C@H]2Cc3ccc(F)c(C(=O)O)c3OB2O)c2cc(F)c(O)c(O)c2Cl)C(=O)C1=O)c1c(F)cncc1F (stereo partly drawn) [Example 402, (3R)-3-(2-(2-chloro-5-fluoro-3,4-dihydroxyphenyl)-2-(4-(3-(3,5-difluoroisonicotinamido)propyl)-2,3-dioxopiperazine-1-carboxamido)acetamido)-7-fluoro-2-hydroxy-3,4-dihydro-2H-benzo[e][1,2]oxaborinine-8-carboxylic acid] | < 10 | < 1 | < 1 | < 1
8 | O=C(O)c1c(F)ccc2c1OB(O)[C@@H](NC(=O)C(NC(=O)N1CCN(C3CCN(C(=O)c4cncc(O)c4)CC3)C(=O)C1=O)c1cc(F)c(O)c(O)c1Cl)C2 (stereo partly drawn) [Example 425, (3R)-3-(2-(2-chloro-5-fluoro-3,4-dihydroxyphenyl)-2-(4-(1-(5-hydroxynicotinoyl)piperidin-4-yl)-2,3-dioxopiperazine-1-carboxamido)acetamido)-7-fluoro-2-hydroxy-3,4-dihydro-2H-benzo[e][1,2]oxaborinine-8-carboxylic acid] | < 10 | < 1 | < 1 | < 1
9 | O=C(NCCCN1CCN(C(=O)N[C@@H](C(=O)N[C@H]2Cc3ccc(F)c(C(=O)O)c3OB2O)c2cc(F)c(O)c(O)c2Cl)C(=O)C1=O)c1ccncc1 [Example 294, (R)-3-((R)-2-(2-chloro-5-fluoro-3,4-dihydroxyphenyl)-2-(4-(3-(isonicotinamido)propyl)-2,3-dioxopiperazine-1-carboxamido)acetamido)-7-fluoro-2-hydroxy-3,4-dihydro-2H-benzo[e][1,2]oxaborinine-8-carboxylic acid] | < 10 | < 1 | < 1 | < 1
10 | O=C(NCCCN1CCN(C(=O)NC(C(=O)N[C@H]2Cc3ccc(F)c(C(=O)O)c3OB2O)c2cc(F)c(O)c(O)c2Cl)C(=O)C1=O)c1ccncc1F (stereo partly drawn) [Example 400, (3R)-3-(2-(2-chloro-5-fluoro-3,4-dihydroxyphenyl)-2-(4-(3-(3-fluoroisonicotinamido)propyl)-2,3-dioxopiperazine-1-carboxamido)acetamido)-7-fluoro-2-hydroxy-3,4-dihydro-2H-benzo[e][1,2]oxaborinine-8-carboxylic acid] | < 10 | 2 to 4 (≈ 2.62 to 5.24 µM) | < 1 | < 1
11 | O=C(O)c1c(F)ccc2c1OB(O)[C@@H](NC(=O)C(NC(=O)N1CCN(CC3CCN(C(=O)Nc4cccc(O)c4)CC3)C(=O)C1=O)c1cc(F)c(O)c(O)c1Cl)C2 (stereo partly drawn) [Example 477, (3R)-3-(2-(2-chloro-5-fluoro-3,4-dihydroxyphenyl)-2-(4-((1-((3-hydroxyphenyl)carbamoyl)piperidin-4-yl)methyl)-2,3-dioxopiperazine-1-carboxamido)acetamido)-7-fluoro-2-hydroxy-3,4-dihydro-2H-benzo[e][1,2]oxaborinine-8-carboxylic acid] | < 10 | < 1 | < 1 | < 1
12 | O=C(NCCCN1CCN(C(=O)NC(C(=O)N[C@H]2Cc3ccc(F)c(C(=O)O)c3OB2O)c2cc(F)c(O)c(O)c2Cl)C1=O)Nc1ccncc1 (stereo partly drawn) [Example 285, (3R)-3-(2-(2-chloro-5-fluoro-3,4-dihydroxyphenyl)-2-(2-oxo-3-(3-(3-(pyridin-4-yl)ureido)propyl)imidazolidine-1-carboxamido)acetamido)-7-fluoro-2-hydroxy-3,4-dihydro-2H-benzo[e][1,2]oxaborinine-8-carboxylic acid] | < 10 | 2 to 4 (≈ 2.73 to 5.47 µM) | < 1 | 8 to 16 (≈ 10.9 to 21.9 µM)
13 | O=C(NCCCN1CCN(C(=O)NC(C(=O)N[C@H]2Cc3ccc(F)c(C(=O)O)c3OB2O)c2cc(F)c(O)c(O)c2Cl)C(=O)C1=O)c1ccc(F)c(O)c1Cl (stereo partly drawn) [Example 412, (3R)-3-(2-(4-(3-(2-chloro-4-fluoro-3-hydroxybenzamido)propyl)-2,3-dioxopiperazine-1-carboxamido)-2-(2-chloro-5-fluoro-3,4-dihydroxyphenyl)acetamido)-7-fluoro-2-hydroxy-3,4-dihydro-2H-benzo[e][1,2]oxaborinine-8-carboxylic acid] | < 10 | 2 to 4 (≈ 2.46 to 4.92 µM) | – | < 1
14 | O=C(O)c1c(F)ccc2c1OB(O)[C@@H](NC(=O)C(NC(=O)N1CCN(C3CCN(C(=O)Nc4cccc(O)c4)CC3)C(=O)C1=O)c1cc(F)c(O)c(O)c1Cl)C2 (stereo partly drawn) [Example 424, (3R)-3-(2-(2-chloro-5-fluoro-3,4-dihydroxyphenyl)-2-(4-(1-((3-hydroxyphenyl)carbamoyl)piperidin-4-yl)-2,3-dioxopiperazine-1-carboxamido)acetamido)-7-fluoro-2-hydroxy-3,4-dihydro-2H-benzo[e][1,2]oxaborinine-8-carboxylic acid] | < 10 | < 1 | < 1 | < 1
